The record followed here is patent US5508273A, “Substituted phosphonic acids and derivatives useful in treating bone wasting diseases” (priority 1993, dated 1996).

pIC50: −log10 of the molar value. Where two headings read alike, the source gives them in different places.

In assay [1] the target is T1, Human osteoclastic acid phosphatase (OAP) (Homo sapiens, UniProt P13686).
T1 construct: purified from hairy cell leukemia spleen; from tissue; host or cells: human hairy cell leukemia spleen
T1 sequence (P13686 22-325): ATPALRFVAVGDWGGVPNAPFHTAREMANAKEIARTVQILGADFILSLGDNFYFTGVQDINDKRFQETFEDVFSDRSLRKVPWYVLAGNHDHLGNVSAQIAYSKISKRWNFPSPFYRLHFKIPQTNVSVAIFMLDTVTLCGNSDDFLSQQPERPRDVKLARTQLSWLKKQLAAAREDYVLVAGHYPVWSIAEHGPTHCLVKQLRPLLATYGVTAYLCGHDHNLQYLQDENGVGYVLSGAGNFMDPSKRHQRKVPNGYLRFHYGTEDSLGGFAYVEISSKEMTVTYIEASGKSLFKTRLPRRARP
The experiment in a line: Osteoclastic Acid Phosphatase (OAP) inhibition. Format: biochemical. The conditions noted are these: for inhibition at 100 µM: read-out: OAPase % Inh@100 uM. How it is done:
Inhibitors of the enzyme are involved with the stimulation of osteoblast cell proliferation in cell culture which is predictive of enhancement of bone mass and bone formation in vivo. Inhibitors of osteoclastic acid phosphatase prevent the resorptive action of osteoclasts and thereby prevent the degradation of bone mass associated with osteoporosis.
The enzyme was stored at -80° C. and was diluted in 50 mM, pH 5.0, sodium acetate buffer prior to use. Test compounds were dissolved in ethanol, DMSO, or water and tested at 100 μM. The assay measures the ability of the enzyme to dephosphorylate methylumbelliferone phosphate to the product, methylumbelliferone, which is fluorescent. The enzyme assay is performed in 50 mM, pH 5.0, sodium acetate buffer as follows: 5 μL of compound was added to 150 μL Of buffered enzyme solution. […] The reaction was performed at room temperature at pH=5.0 and terminated after 20 minutes by the addition of 50 μL of 4N NaOH. The reaction product, methylumbelliferone, was measured by fluorescence determination using a Dynatech Microfluor Fluorescence detector.

Assay [2] has as its system osteoblast-line cells (mouse MC3T3-E 1 and human TE-85). The experiment in a line: Osteoblast cell proliferation (3H-thymidine incorporation). The conditions noted are these: MC3T3-E1, control is 100%, cell line (MC3T3-E 1 or TE-85) not stated per value, read-out: Osteoblast Prolif (% XControl@ 0.01 uM). Type of assay: cell-based. An excerpt: Compounds of the present invention have utility to treat bone wasting diseases including osteoporosis in animals including humans through enhancement of bone calcification as well as inhibition of bone degeneration or resorption. The compounds of the present invention have been evaluated as inhibitors of human prostatic tyrosyl phosphatase, an isoenzyme similar to a tyrosyl phosphatase present in human osteoblasts. Inhibitors of the enzyme are involved with the stimulation of osteoblast cell proliferation in cell culture which is predictive of enhancement of bone mass and bone formation in vivo. Inhibitors of osteoclastic acid phosphatase prevent the resorptive action of osteoclasts and thereby prevent the degradation of bone mass associated with osteoporosis. Table 1 reports the results of the compounds of the present invention in inhibiting human prostatic tyrosyl phosphatase and osteoclastic acid phosphatase. […] Their ability to stimulate osteoblast cell proliferation at 0.01 uM concentration is presented also in Table 1. […] However, such compounds may be useful as prodrugs to the acid (R^1 and R^2 equal H) and as intermediates useful in making the corresponding acid.
The action of select compounds to stimulate osteoblast growth can be measured in culture by estimating the rate of DNA synthesis by the rate of ^3 H-thymidine incorporation into DNA. Only cells undergoing mitosis will synthesize new DNA and thus only these cells will incorporate the radiolabeled DNA-specific thymidine. The stimulation of the proliferation and differentiation of bone-forming cells, osteoblasts, is a prerequisite for an increase in bone formation and bone mass. The ability of agents to increase osteoblast proliferation and differentiation can be predicted by their action on cultured osteoblast-line cells in vitro. In this test, mouse (MC3T3-E 1) cloned by Sudo et al. Koriyama, Japan) and human (TE-85) osteoblast-line cells (American Type Tissue Culture Collection, #CRL 1543, Rockville, Md.) were cultured/n vitro and the effect of various agents was tested on osteoblast cell proliferation. Osteoblasts were isolated and cultured according to literature methods. [J. E. Puzas, R. H. Drivdahl, A. G. Howard, and D. J. Baylink, Proc. Soc. Exper. Biol. Med., 166 113-122, […]]. Cells were harvested from large culture flasks, where they were allowed to grow to near confluency, using trypsin. The cells were plated into 96 well culture plates, 1600 cells in 100 μL per well in Dulbecco's Modified Eagle's Medium with 25 mM HEPES buffer, L-glutamine (584 mg/L); D-glucose (4.5 g/L) supplemented with fetal bovine sera (10%); penicillin (100 units/mL)and streptomycin (100 mcg/mL); sodium pyruvate (10 μM final concentration). The cells were allowed to plate overnight in DMEM containing 10% fetal bovine sera at 37° C., in an atmosphere of 5% CO2 /95% air. Following their placement into 96 well culture plates all the osteoblast-line cells, either the MC3T3-E 1 or the TE-85 cell lines, were allowed an additional 24 hours preincubation period in media containing only 0.1% fetal bovine sera. The next day the test compounds were added and screened at concentrations ranging from 10^-4 to 10^-8 M depending on the study. Twenty hours later, a 20 μL aliquot of media containing 0.4 μCi of ^3 H-thymidine was added to each culture well. The cells were then incubated an additional 4 hours. The incubation was terminated by aspirating the media and washing with HBSS (Hank's Balanced Salt Solution). The cells were then treated with 100 μL of 0.5% trypsin and […] of EDTA for 30 minutes at room temperature. The cells were then aspirated onto a glass fiber filter and washed with water. The radioactivity on the filters was quantified by liquid scintillation spectroscopy. The rate of ^3 H-thymidine incorporation into DNA is then utilized as an index of cell proliferation. The results are shown in Table 1 expressed as % times control where control is 100%.

In assay [3] the target is T2, human prostatic tyrosyl phosphatase (Homo sapiens, UniProt P15309).
T2 construct: purchased Sigma Chemical Co
T2 sequence (P15309 33-386): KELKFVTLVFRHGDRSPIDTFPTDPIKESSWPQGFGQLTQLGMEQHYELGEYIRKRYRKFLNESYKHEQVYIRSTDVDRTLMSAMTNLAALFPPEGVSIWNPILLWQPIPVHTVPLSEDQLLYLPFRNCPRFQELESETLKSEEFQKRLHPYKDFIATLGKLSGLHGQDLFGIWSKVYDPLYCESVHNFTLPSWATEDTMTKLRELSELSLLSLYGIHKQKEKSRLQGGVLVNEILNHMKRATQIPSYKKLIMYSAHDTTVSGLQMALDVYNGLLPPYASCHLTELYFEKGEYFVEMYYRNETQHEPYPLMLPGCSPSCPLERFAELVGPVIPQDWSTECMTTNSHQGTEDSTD
Nature of the assay: biochemical. The settings on record: 30 minutes at 37° C., pH 5.5, (14C)-phosphotyrosine substrate; read-out: Tyr-Pase IC50. How it is done:
Inhibition of the activity of tyrosyl protein phosphatase was evaluated by incubating an aliquot of purified human prostatic tyrosyl protein acid phosphatase (Sigma Chemical Co.) with radiolabeled phosphotyrosine. The radiolabeled substrate, (^14 C)-phosphotyrosine, is separated from the product, (^14 C)-tyrosine by ion exchange chromatography and the production of radiolabeled tyrosine is quantified. Test compounds are screened at a concentration of one micromolar to 1 nM. The ability of test compounds to inhibit tyrosyl phosphatase was expressed as the % inhibition at the highest concentration of test compound tested and/or as the IC50 in Table 1.
The test compounds were incubated in the presence of tyrosyl acid phosphatase and radiolabeled substrate {(^14 C)-phosphotyrosine, (NEN Dupont Custom Synthesis)} plus cold O-phospho-L-tyrosine{(10 uM) (Sigma Chemical Co.)} in a 0.05 mM sodium acetate buffer (pH 5.5) for 30 minutes at 37° C. […] The incubation mixture was passed over an ion-exchange column {(Ag 1-X8) (Bio-Rad Laboratories)} and washed with 2.5 ml of distilled, deionized water. The total column effluent containing the radiolabeled product (^14 C-tyrosine) was collected and quantified by liquid scintillation spectroscopy. The test compounds IC50 was calculated using a quantal (all-or-none) dose-response calculation.

[4] abbreviates: pH 5.0, room temperature, 20 minutes.
Where [5] appears, read: pH 5.0, room temperature, 20 minutes, read-out: OAPase IC50.

The pIC50 is the negative decadic logarithm of the IC50, by convention in mol/L. `O=P(O)(O)C(Cc1ccccc1)c1ccccc1` (centres unmarked) [Cmpd 34]: in assay [1] (setting [4]), the inhibition at 100 µM was 15%. Besides, the activity at 0.01 µM in assay [2] stood at 156%. In addition, in assay [3], the pIC50 is 4.05.
On to `O=P(O)(O)C(c1ccccc1)c1ccccc1F` (centres unmarked) [Cmpd 12], for which the inhibition at 100 µM in assay [1] (setting [4]) is 12%. Moreover, in assay [2], the activity at 0.01 µM stood at 124%. In addition, in assay [3], the pIC50 was 4.39.
The corresponding values for `O=P(O)(O)C(Cc1ccc(Cl)cc1)c1ccccc1` (centres unmarked) [Cmpd 33] are 30%, 104% and 4.46.
Take `Cc1ccc(C(c2ccccc2)P(=O)(O)O)cc1` (centres unmarked) [Cmpd 22]: in assay [1] (setting [4]), the inhibition at 100 µM was 22%. Moreover, the activity at 0.01 µM in assay [2] was 116%. Also, the negative logarithm of the IC50 (pIC50) in assay [3] was 3.82.
Take `O=P(O)(O)C(CCCCc1ccccc1)c1ccccc1` (centres unmarked) [Cmpd 10]: the pIC50 in assay [1] (setting [5]) was 4.00; in assay [3] it was 4.76. Further, the activity at 0.01 µM in assay [2] was 124%.
For `Cc1cccc(C(Cc2ccccc2)P(=O)(O)O)c1` (centres unmarked) [Cmpd 29], the inhibition at 100 µM in assay [1] (setting [4]) was found to be 15%. Also, the activity at 0.01 µM in assay [2] amounted to 99%. Moreover, the pIC50 in assay [3] is 3.54.
For `O=P(O)(O)C(Cc1ccccc1)c1ccc2ccccc2c1` (centres unmarked) [Cmpd 40], in assay [1] (setting [4]), the inhibition at 100 µM stood at 19%. Moreover, the pIC50 in assay [3] is below 6.00.
For `O=P(O)(O)C(c1cccc(C(F)(F)F)c1)c1cccc(C(F)(F)F)c1` [Cmpd 20, bis(3-Trifluoromethylphenyl)methylphosphonic Acid], the inhibition at 100 µM in assay [1] (setting [4]) is 28%. Further, the pIC50 in assay [3] was 4.53.
`O=P(O)(O)C(c1ccccc1)c1ccc(C(F)(F)F)cc1` (centres unmarked) [Cmpd 23]: the pIC50 in assay [1] (setting [5]) was 4.00; in assay [3], 4.39.
`O=C(c1ccccc1)C(C(=O)c1ccccc1)(c1cccc2ccccc12)P(=O)(O)O` [Cmpd 55, bis(Benzoyl)(1-naphthyl)methylphosphonic Acid]: the results for the pIC50 in assay [1] and in assay [3] were 5.85 and below 6.00, respectively. In addition, the inhibition at 100 µM in assay [1] (setting [4]) was 96%.
Consider `O=P(O)(O)C(Cc1ccc(-c2ccccc2)cc1)c1cccc2ccccc12` (centres unmarked) [Cmpd 42], for which the inhibition at 100 µM in assay [1] (setting [4]) is 100%. Also, the negative-log IC50 (pIC50) is 5.20 in assay [1] (setting [5]) and below 6.00 in assay [3].
For `O=P(O)(O)C(c1ccccc1)c1cccc(Cl)c1` (centres unmarked) [Cmpd 15], the inhibition at 100 µM in assay [1] (setting [4]) was determined as 31%. For the same molecule, in assay [3], the pIC50 is 4.82.
Consider `O=P(O)(O)C(c1ccccc1)c1ccc(F)cc1` (centres unmarked) [Cmpd 21], for which the inhibition at 100 µM in assay [1] (setting [4]) was found to be 10%. Also, the pIC50 in assay [3] is 4.35.
As for `Cc1cccc(C(Cc2ccc(Cl)cc2)P(=O)(O)O)c1` (centres unmarked) [Cmpd 30], the activity at 0.01 µM in assay [2] stood at 97%. The pIC50 in assay [3] is 4.09.
For the molecule `O=P(O)(O)C(Cc1ccc(F)cc1)c1cccc(C(F)(F)F)c1` (centres unmarked) [Cmpd 37], the inhibition at 100 µM in assay [1] (setting [4]) turned out to be 25%. The pIC50 in assay [3] is 4.51.
Take `O=P(O)(O)C(CCc1ccccc1)c1ccccc1` (centres unmarked) [Cmpd 9]: the inhibition at 100 µM in assay [1] (setting [4]) was determined as 30%. Further, the pIC50 in assay [3] was 4.86.
Regarding `O=P(O)(O)C(Cc1cccc(C(F)(F)F)c1)c1cccc(C(F)(F)F)c1` (centres unmarked) [Cmpd 35, 3-Trifluoromethylphenyl(3-trifluoromethylbenzyl)methylphosphonic Acid], the pIC50 in assay [1] (setting [5]) is 4.00; in assay [3], 5.05.
As for `O=P(O)(O)C(c1ccccc1)C1CCCCCC1` (centres unmarked) [Cmpd 5], in assay [1] (setting [4]), the inhibition at 100 µM stood at 6%. In addition, the pIC50 in assay [3] is 4.63.
As for `O=P(O)(O)C(Cc1ccc(-c2ccccc2)cc1)c1ccccc1` (centres unmarked) [Cmpd 25], the inhibition at 100 µM in assay [1] (setting [4]) was found to be 94%. Also, the pIC50 in assay [1] (setting [5]) was 4.54; in assay [3], 4.80.
